“Also recorded” adds a separate entry of the source.
What was measured:
FGF23 binding to FGFR4 [1] = target: T1, FGF23 binding to FGFR4 (Homo sapiens, UniProt P22455+Q9GZV9); assay: Plate-based binding, FGF23 coated, then sKL, heparin or PBS, then Fc-FGFR; conditions: with sKL, with heparin 0.4 USP, or alone
T1 construct: Fc-coupled FGFR ectodomains were immobilized on protein A/G beads; purchased R&D Systems 2604FG025/CF or 2629FG025/CF; 685FR050
Procedure: (§1) Proteins were coated on 96-well plates (MaxiSorp; 439454, Thermo Fisher Scientific), and proteins were added to wells in 100 μl of enzyme-linked immunosorbent assay (ELISA) coating buffer (E107, Bethyl Laboratories) with a lid placed overtop and incubated at 4° C. overnight. Plates were washed 5× with 350 μl of assay buffer (50 mM Tris [pH 7.4], 200 mM NaCl, 0.01% Tween 20) on a 50 TS microplate washer (BioTek). Plates were blocked for 1 hour in 200 μl of assay buffer with 0.5% BSA. Plates were washed as before, and proteins were incubated on plates in 100 μl of assay buffer with 0.5% BSA. Proteins or heparin was incubated in orders described in the respective figure legends. Assays using FLAG-tag-based detection were incubated with anti-FLAG coupled to HRP at 1:20,000, and assays using Fc detection were incubated with anti-human Fc coupled to HRP at 1:10,000. Plates were washed as above, and 100 μl of 3,3′,5,5′-tetramethylbenzidine (TMB) substrate (E102, Bethyl Laboratories) was added for 15 to 20 minutes until positive wells developed a dark blue color. Reactions were stopped with ELISA stop solution (E115, Bethyl Laboratories) and analyzed using the Synergy HI plate reader (BioTek) at 450 nm wavelength. […] As a control to remove background absorbance values, wells were coated with an equal amount of BSA to match the amount of protein coated in experimental wells and treated the same as experimental wells. To study the effects of sKL on the binding between paracrine FGFs and FGFRs, plates were run as above except coated with paracrine FGFs. Fc-FGFR1 was preincubated with sKL or vehicle for 60 minutes, and then the combination was added to wells and the assay was run as before.

FGF23 binding to FGFR3c = target: T2, FGF23 binding to FGFR3c (Homo sapiens, UniProt P22607+Q9GZV9); assay: as above; conditions: with sKL, with heparin 0.4 USP, or alone
T2 construct: Fc-coupled FGFR ectodomains were immobilized on protein A/G beads; purchased R&D Systems 2604FG025/CF or 2629FG025/CF; 766FR050
Procedure: as §1

FGF23 binding to FGFR2c = target: T3, FGF23 binding to FGFR2c (Homo sapiens, UniProt P21802); assay: as above; conditions: with sKL, with heparin 0.4 USP, or alone
T3 construct: Fc-coupled FGFR ectodomains were immobilized on protein A/G beads; purchased R&D Systems 2604FG025/CF or 2629FG025/CF; 712FR050
Procedure: as §1

FGF23 binding to FGFR1c = target: T4, FGF23 binding to FGFR1c (Homo sapiens, UniProt P11362+Q9GZV9); assay: as above; conditions: with sKL, with heparin 0.4 USP, or alone
T4 construct: Fc-coupled FGFR ectodomains were immobilized on protein A/G beads; purchased R&D Systems 2604FG025/CF or 2629FG025/CF; 658FR050
Procedure: as §1

FGF23 binding to FGFR4 [2] = target: T1, FGF23 binding to FGFR4; assay: Pull-down of FGF23 with Fc-FGFR on protein A/G beads with sKL, heparin or PBS; conditions: with heparin, or alone
Procedure: To study the interaction between Fc-tagged FGFR isoforms (Fc-FGFR), FGF isoforms, and sKL, immunoprecipitation studies were conducted. Protein A beads (6501, BioVision) and protein G beads (6511, BioVision) were used at 25 μl of a 50% stock slurry per sample in a total bead volume of 50 μl. Beads were washed 5× in activity buffer (50 mM Tris [pH 7.4], 200 mM NaCl, 0.01% Tween 20). Bead spin-down assays were all performed for 2 minutes at 5000 g. Beads were resuspended in 1 ml of activity buffer in a 1.5-ml snap cap tube. One microgram of Fc-FGFR1 to 4 was incubated with the beads for 1 hour on a bead rotator. Control samples were incubated with 2 μg of anti-FGF antibody instead of Fc-FGFR. Beads were then pelleted at 5000 g for 2 minutes and washed 5× with activity buffer. Beads were resuspended and incubated with different combinations of 500 ng of FGF, 1 μg of sKL, 1.6 United States Pharmacopeia (USP) units of heparin, or phosphate-buffered saline (PBS). Beads were incubated for 1 hour on a tube rotator, and beads were pelleted and washed as before. One hundred microliters of 1× Laemmli sample buffer (1610737, Bio-Rad) with 1.42 M 2-mercaptoethanol was added, and samples were boiled for 5 minutes. Samples were analyzed using SDS-PAGE and Western blotting.
The sample (20 μl) was loaded onto Mini-PROTEAN TGX Precast Gel 4-20% for experiments with <9 samples (4568094, Bio-Rad) or Criterion TGX Precast Gel 4-20% (5678094, Bio-Rad) for experiments with >9 samples. Gels were run in 1× Tris/Glycine/SDS buffer (1610732, Bio-Rad) at 150 V and stopped when the sample dye reached the end of the gel. Gels were removed and electrotransferred via a semi-dry cassette (1703940, Bio-Rad) in I× Tris/Glycine buffer (1610734, Bio-Rad) with 20% methanol. Gels were transferred onto polyvinylidene diflouride membranes (IPVH00010, Millipore) at 20 V for 1 hour. Membranes were then blocked in 5% dried milk with 0.5% Tween 20 diluted in Tris-buffered saline (TBST; pH 7.5) for 1 hour and probed with antibodies against specific antigens at 1:1000 in TBST with 5% dried milk. Blots were washed 3× for 5 minutes in TBST and probed with HRP-coupled secondary antibodies against specific species at 1:10,000 in TBST with 5% dried milk. Membranes were imaged on the SRX-101A X-ray film developer (Konica Minolta).

[3] = tested on: BALB/c mice on 0.2% adenine diet; conditions: mouse, in vivo

T1 sequence (Q9GZV9 25-251): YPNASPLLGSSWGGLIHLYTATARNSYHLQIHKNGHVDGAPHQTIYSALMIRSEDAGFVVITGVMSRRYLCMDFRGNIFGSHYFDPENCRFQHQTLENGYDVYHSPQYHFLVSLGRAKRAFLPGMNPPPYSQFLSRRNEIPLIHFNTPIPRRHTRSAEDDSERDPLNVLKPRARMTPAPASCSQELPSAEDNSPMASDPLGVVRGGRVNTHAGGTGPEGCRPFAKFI
T1 sequence (P22455 22-369 limits assumed): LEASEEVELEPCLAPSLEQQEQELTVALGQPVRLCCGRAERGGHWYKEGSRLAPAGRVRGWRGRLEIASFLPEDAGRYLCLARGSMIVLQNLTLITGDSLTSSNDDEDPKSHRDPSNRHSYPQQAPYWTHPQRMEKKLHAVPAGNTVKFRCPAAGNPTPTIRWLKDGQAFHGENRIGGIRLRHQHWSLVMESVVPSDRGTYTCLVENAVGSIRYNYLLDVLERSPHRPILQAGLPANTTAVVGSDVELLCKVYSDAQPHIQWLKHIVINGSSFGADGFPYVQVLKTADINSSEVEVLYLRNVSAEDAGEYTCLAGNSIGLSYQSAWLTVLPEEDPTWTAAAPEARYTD
T3 sequence (P21802 22-377 limits assumed): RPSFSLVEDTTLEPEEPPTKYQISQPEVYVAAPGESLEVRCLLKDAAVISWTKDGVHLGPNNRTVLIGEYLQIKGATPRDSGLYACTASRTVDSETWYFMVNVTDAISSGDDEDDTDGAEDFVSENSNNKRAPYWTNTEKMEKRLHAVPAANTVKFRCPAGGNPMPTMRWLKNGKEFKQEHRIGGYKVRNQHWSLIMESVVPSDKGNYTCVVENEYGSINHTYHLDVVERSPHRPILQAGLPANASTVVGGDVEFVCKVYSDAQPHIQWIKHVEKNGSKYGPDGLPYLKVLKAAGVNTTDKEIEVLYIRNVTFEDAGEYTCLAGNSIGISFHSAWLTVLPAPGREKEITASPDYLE
T4 sequence (Q9GZV9 25-251): as the sequence (Q9GZV9 25-251) above
T4 sequence (P11362 22-376 limits assumed): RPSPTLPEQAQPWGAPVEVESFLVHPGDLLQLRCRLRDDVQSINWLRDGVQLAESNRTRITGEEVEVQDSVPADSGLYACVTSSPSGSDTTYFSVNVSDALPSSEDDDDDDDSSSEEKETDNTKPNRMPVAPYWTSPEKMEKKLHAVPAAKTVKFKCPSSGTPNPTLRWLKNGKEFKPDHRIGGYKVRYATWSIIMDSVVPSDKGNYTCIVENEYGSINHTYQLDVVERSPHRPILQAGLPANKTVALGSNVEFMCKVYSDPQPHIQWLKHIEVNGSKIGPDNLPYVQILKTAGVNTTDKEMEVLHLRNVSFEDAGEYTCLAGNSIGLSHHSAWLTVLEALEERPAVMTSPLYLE
T2 sequence (Q9GZV9 25-251): as the sequence (Q9GZV9 25-251) above
T2 sequence (P22607 23-375 limits assumed): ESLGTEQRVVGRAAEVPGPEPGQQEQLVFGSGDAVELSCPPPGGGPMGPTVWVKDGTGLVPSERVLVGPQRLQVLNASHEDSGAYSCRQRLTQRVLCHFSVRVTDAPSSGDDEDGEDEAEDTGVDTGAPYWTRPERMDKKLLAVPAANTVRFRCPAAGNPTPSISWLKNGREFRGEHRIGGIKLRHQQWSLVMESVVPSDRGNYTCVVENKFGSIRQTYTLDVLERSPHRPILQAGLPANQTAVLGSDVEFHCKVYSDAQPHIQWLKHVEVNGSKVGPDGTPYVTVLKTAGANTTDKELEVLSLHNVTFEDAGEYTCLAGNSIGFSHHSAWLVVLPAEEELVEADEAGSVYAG

binding of coated FGF23 to Fc-FGFR3c (FGF23 binding to FGFR3c): no measurable binding
binding of coated FGF23 to Fc-FGFR1c (FGF23 binding to FGFR1c): no measurable binding
effect on the heart [3]: no effect on the heart
Substance: heparin [reference compound]
binding of coated FGF23 to Fc-FGFR4 (FGF23 binding to FGFR4 [1]): significantly increased; also recorded: the strongest
binding of coated FGF23 to Fc-FGFR2c (FGF23 binding to FGFR2c): to a much lesser extent to FGFR2c; also recorded: weaker binding to FGFR2c
FGF23 co-precipitation with Fc-FGFR4 (FGF23 binding to FGFR4 [2]): efficiently coprecipitates FGF23; also recorded: increased binding of FGF23 to FGFR4
ratio of heart weight to body weight [3]: not significantly altered

Reference: patent US20240384250A1, “FIBROBLAST GROWTH FACTOR 23 MODULATING COMPOUNDS” (THE UAB RESEARCH FOUNDATION, priority 2021, published 2024)
